Entries after “also recorded” stand apart in the source; their conditions may differ.
What was measured:
PC-3 tumor xenografts = assay: PC-3 xenografts in nude mice; assay type: in vivo; settings: 10 mg/kg/day
Experimental: PC-3 cells suspended in PBS were subcutaneously injected to the lower flanks of immune-deficient nude mice at a density of 2×10^6 cells/200 ul (PBS). After tumor establishment, 4A formulated in tween80 (5%), DMSO (10%), PEG400 (25%) and PBS (60%) were administered in an intraperitoneal fashion to mice at a daily dose of 10 mg (compound)/kg (mouse). Blank vehicle was used as a control. Tumors and mouse weights were measured and tumor volumes were calculated as Length×width^2/2.

CCRF-CEM = assay: IC50 in leukemia cell lines; assay type: cell-based; settings: Homo sapiens, T-ALL
SK-MEL-28 = assay: NCI60 screening; assay type: cell-based; settings: Homo sapiens, Melanoma
NCI-BL2009 = assay: IC50 in leukemia cell lines; assay type: cell-based; settings: NCI-BL2009, Normal B-Lymphoblast
HCC1007-BL = assay: IC50 in leukemia cell lines; assay type: cell-based; settings: Normal B-Lymphoblast
A498 = assay: NCI60 screening; assay type: cell-based; settings: Homo sapiens, Renal Cancer
NCI-H226 = assay: NCI60 screening; assay type: cell-based; settings: Homo sapiens, Non-Small Cell Lung Cancer
Loucy = assay: IC50 in leukemia cell lines; assay type: cell-based; settings: T-ALL
tubulin = assay: In vitro tubulin polymerization assay; assay type: biochemical; settings: 5 μM
Experimental: In vitro tubulin polymerization assay. The in vitro tubulin polymerization assay was performed by referring tubulin manufacturer's protocol. Briefly, tubulin powder (Cytoskeleton Inc. USA) was dissolved in cold buffer [100 mM PIPES (pH 6.9), 2 mM MgCl2, 1 mM GTP, and 5% glycerol] on ice. Then aliquots (80 μL, 3.75 μg/μL) of the obtained tubulin solution were divided into the wells of a 96-well half-area plate (Corning, USA). After adding DMSO or testing compounds, the plate was mounted to a Spectra MR™ microplate spectrophotometer equipped with a thermal controller allowing to adjust the temperature to 37° C. (DYNEX Technologies Limited, USA). Readings at 350 nm were recorded every 30 s for 1 hour.

HCC-2998 = assay: NCI60 screening; assay type: cell-based; settings: Homo sapiens, Colon Cancer
DND41 = assay: IC50 in leukemia cell lines; assay type: cell-based; settings: DND41, T-ALL
Molt-16 = assay: IC50 in leukemia cell lines; assay type: cell-based; settings: Homo sapiens; Molt-16, T-ALL
UACC-257 = assay: NCI60 screening; assay type: cell-based; settings: Homo sapiens, Melanoma
REH = assay: IC50 in leukemia cell lines; assay type: cell-based; settings: Homo sapiens, B-ALL
Cdc2 (CDK1) = Cdc2 (CDK1) phosphorylation (FIG. 7B); assay type: cell-based
LS174T cells = assay: Proliferation inhibition assay, LS174T; assay type: cell-based; settings: Homo sapiens, LS174T, Table 2
Experimental: Cell Culture. LS174T (colon cancer cells), PC-3 (prostate cancer cells), MCF-7 (beast) and A549 (lung) were cultured in the medium recommended by American Type Culture Collection at 37° C. with 5% CO2 atmosphere in a water jacketed incubator. Ovcar-8 and NCI/ADR-RES are gifts from Dr. Markos Leggas. Alpha-tubulin antibodies, TRITC-conjugated anti-rabbit antibody.
Proliferation inhibition assay. Cancer cells were seeded into 24-well plates at a density of 20,000 cells per well in 1 mL of culture medium and cultured overnight at 37° C. Compounds and the vehicle control DMSO were added to the cells. After 6 days, medium was removed and 100 μL of trypsin was added. Then the cells resuspended in pbs were counted by Vi-CELL XR 2.03 (Beckman Coulter, Inc. USA). The ratio R of the number of viable cells in the compound treatment group to the number of viable cells in DMSO treatment group was taken as relative growth, and the percentage growth inhibition was calculated as: (1−R)*100. For initial testing, compounds were added to the cells at a final concentration 10 μM. Active compounds at 10 μM would be tested at lower concentrations.

[1] = system: LS174T colon and PC3 prostate cancer cells; assay: Combination with CDK inhibitor R03306, proliferation; assay type: cell-based
Jurkat = assay: IC50 in leukemia cell lines; assay type: cell-based; settings: Homo sapiens, T-ALL
[2] = system: PC-3, LS174T and HEK293T cells; assay: Cell morphology; assay type: cell-based; settings: 300 nM, 6 h
NCI/ADR-RES = assay: NCI60 screening; assay type: cell-based

CCn1cc(/C=C2\Oc3cc(OCC#N)ccc3C2=O)c2cc(OC)ccc21 [Aurone 4a, (Z)-2-((2-((1-Ethyl-5-methoxy-1H-indol-3-yl)methylene)-3-oxo-2,3-dihydrobenzofuran-6-yl)oxy)acetonitrile]
gross toxicity / body weights of treated mice (PC-3 tumor xenografts): without significant effects on body weights; also recorded: no apparent gross toxicity; also recorded: no general toxicity
in vivo tumor inhibitory effect (PC-3 tumor xenografts; intraperitoneal): inhibited PC-3 tumor xenografts; also recorded: significant, tumor-growth suppression
IC50 (CCRF-CEM): 244 nM
GI50 (SK-MEL-28): 10200 nM
IC50 (NCI-BL2009): 1250 nM
IC50 (HCC1007-BL): 1380 nM
GI50 (A498): 10300 nM
GI50 (NCI-H226): 57400 nM
IC50 (Loucy): 334 nM
tubulin polymerization in vitro (tubulin): inhibits tubulin polymerization
GI50 (HCC-2998): 3440 nM
IC50 (DND41): 210 nM
IC50 (Molt-16): 234 nM
GI50 (UACC-257): 67100 nM
IC50 (REH): 287 nM
Cdc2 (CDK1) phosphorylation at tyrosine 15 (Cdc2 (CDK1)): decreasing phosphorylation at tyrosine 15
inhibition at 0.1 µM (LS174T cells; 100 nM): 11 ± 11%
inhibition at 0.3 µM (LS174T cells; 300 nM): 93 ± 14%
inhibition at 1 µM (LS174T cells; 1 μM): 97 ± 0.4%
inhibition at 10 µM (LS174T cells; 10 μM): 96 ± 0.8%
combination effect with R03306 on proliferation [1]: synergistic effects
IC50 (Jurkat): 273 nM
cell morphology [2]: Cell morphologies were changed
cytotoxicity against multidrug-resistant cell line (NCI/ADR-RES; NCI/ADR-RES): potent cytotoxicity
substrate of P-glycoprotein (NCI/ADR-RES; inferred from NCI/ADR-RES cells expressing P-glycoprotein): not likely a substrate of P-glycoprotein

From US20200354348A1, “SEMISYNTHETIC AURONES AND METHODS OF USE THEREOF” (University of Kentucky Research Foundation, priority 2018, published 2020)
